Laboratory results: patent publication US20210145774A1, “Treatment of alcoholic liver disease” (CymaBay Therapeutics, Inc., priority 2019, published 2021)

Assays:
PPARα = target: T1, PPARα (Homo sapiens, UniProt Q07869); assay: Specificity compared with PPARα
T1 sequence (Q07869 1-468): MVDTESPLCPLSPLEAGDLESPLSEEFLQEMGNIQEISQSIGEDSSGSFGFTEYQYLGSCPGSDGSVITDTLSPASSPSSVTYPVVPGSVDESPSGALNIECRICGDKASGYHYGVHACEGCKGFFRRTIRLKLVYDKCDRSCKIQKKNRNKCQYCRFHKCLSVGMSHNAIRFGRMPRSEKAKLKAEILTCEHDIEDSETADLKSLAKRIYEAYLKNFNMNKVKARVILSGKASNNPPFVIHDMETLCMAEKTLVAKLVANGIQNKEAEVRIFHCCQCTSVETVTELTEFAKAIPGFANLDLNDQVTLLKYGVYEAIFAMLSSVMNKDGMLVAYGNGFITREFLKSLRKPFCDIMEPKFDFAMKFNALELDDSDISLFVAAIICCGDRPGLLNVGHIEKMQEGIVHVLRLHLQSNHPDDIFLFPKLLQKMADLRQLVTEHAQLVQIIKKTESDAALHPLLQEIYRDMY
Description: It is specific (>600-fold and>2500-fold compared with PPARα and peroxisome proliferator-activated receptor-γreceptors). PPARδ activation stimulates fatty acid oxidation and utilization, improves plasma lipid and lipoprotein metabolism, glucose utilization, and mitochondrial respiration, and preserves stem cell homeostasis.

[1] = test system: wild-type female C57BL/6 mice; assay: Lieber-DeCarli ethanol diet mouse model of alcoholic liver disease; type: in vivo; conditions: for liver histology, hematoxylin and eosin (H+E): formalin-fixed liver sections; for hepatic lipid accumulation, oil red staining: frozen liver sections; for ALT: plasma; for ALT / Total bile acids / Hepatic TGs / Plasma LPS / FA (fecal albumin): mean (SEM); for Total bile acids: LC-MS; for FA (fecal albumin): feces at 7.5 weeks
Description: Age-matched wild-type female C57BL/6 mice (Charles River, Wilmington, Mass.), 8-9 weeks old at the initiation of the study, were used.
The Lieber-DeCarli ethanol diet was originally developed by Charles Lieber and Leonore DeCarli in 1963. This diet allows for the prolonged exposure of ethanol in a rodent model and allows for modification to calories provided by ethanol. […] The caloric intake from ethanol was 0% on day 1, 10% on days 2 and 3, 20% on days 4 and 5, 30% from day 6 until the end of 6 weeks, and 36% for the last 2 weeks, for a total in-life time of eight weeks. The ethanol-fed mice also received one bolus dose of 33% v/v ethanol at 5 g/Kg on the last in-life day. The control diet contained an isocaloric substitution of isomaltose for the ethanol. […] In the prevention portions of the study, including with the control diet, seladelpar was added throughout the entire study period; in the intervention portion of the study, seladelpar was added only for the fifth through eighth weeks. Fresh feces were collected at 7.5 weeks. All mice were sacrificed after eight weeks; the ethanol-fed mice eight hours after the ethanol bolus. At sacrifice, body and liver weight were recorded; and blood/plasma, liver, gallbladder, small and large intestine (wall and contents) and cecum were harvested. Analyses included plasma ALT—to measure […]; hepatic TGs; plasma lipopolysaccharides (LPS)—to measure the extent of bacterial leakage from the intestine into the blood; fecal albumin (FA)—to measure the extent of albumin leakage from the blood into the intestine (feces); and total bile acids, measured by liquid chromatography-mass spectrometry (LC-MS) generally according to the method described in Hartmann et al., “Modulation of the Intestinal Bile Acid/Farnesoid X Receptor/Fibroblast Growth Factor 15 Axis Improves Alcoholic Liver Disease in Mice”, Hepatology, 67(6), 2150-2166 (2018).
The study results are given in the table below: standard errors of the means are in parentheses, n denotes the number of mice measured, and ANOVA denotes the significance value of an ANOVA analysis between groups 3, 4, and 5:
Formalin-fixed liver sections were stained for histological examination with hematoxylin and eosin (H+E).
Frozen liver sections were cut and stained with oil red 0 for hepatic lipid accumulation analysis.

[2] = test system: atherogenic diet-fed obese diabetic (Alms1 mutant (foz/foz)) mice; conditions: foz/foz mice on atherogenic diet; cited from earlier work
[3] = test system: subjects with diagnosed alcoholic liver disease (acute alcoholic hepatitis); assay: Clinical (intravenous), subjects with acute alcoholic hepatitis; type: in vivo, human; conditions: intravenous 2-100 mg/day for up to 30 days
Protocol: At each assessment blood is drawn; and a standard metabolic panel and complete blood count are performed. Blood is analyzed for bilirubin, creatinine, prothrombin time (International Normalized Ratio—INR), TGs, liver transaminases, high sensitivity C-reactive protein (hsCRP), interleukin-18, and TNF-α.

[4] = test system: subjects with diagnosed alcoholic liver disease (alcoholic fatty liver); assay: Clinical (oral), subjects with alcoholic fatty liver; type: in vivo, human; conditions: oral 2-100 mg/day for 6 months
Protocol: Subjects are permitted their usual other medications (e.g. antidiabetic medications such as metformin or […]) but not glitazones, PPAR agonists, OCA, or similar medications. […] At each visit, after a 12-hour fast, blood is drawn and urine collected; and a standard metabolic panel, complete blood count, and standard urinalysis are performed. Blood is analyzed for bilirubin, creatinine, prothrombin time (International Normalized Ratio—INR), TGs, and liver transaminases. The subjects also maintain health diaries, which are reviewed at each visit.

[5] = alcohol diet (group 3 vs groups 4 and 5, prevention and intervention)
[6] = alcohol diet, untreated group 3 vs seladelpar groups 4 and 5, ANOVA <0.001
[7] = group 2: control diet with seladelpar prevention, 10 mg/Kg/day oral, 8 weeks

specificity for PPARδ compared with PPARα (PPARα): > 600 fold
Compound: CCO[C@H](COc1ccc(C(F)(F)F)cc1)CSc1ccc(OCC(=O)O)c(C)c1 [seladelpar, [4-({(2R)-2-ethoxy-3-[4-(trifluoromethyl)phenoxy]propyl}sulfanyl)-2-methylphenoxy]acetic acid]
liver histology, hematoxylin and eosin (H+E) [1, 5]: significant reduction of steatosis and restoration of a more normal architecture
hepatic lipid accumulation, oil red staining [1, 5]: significant reduction of stainable lipid droplets
change in serum ALT ([1]; alcohol diet, untreated group 3 vs seladelpar groups 4 and 5 (prevention and intervention), ANOVA <0.001): significant reductions (improvements)
change in serum LPS ([1]; alcohol diet, untreated group 3 vs seladelpar groups 4 and 5, ANOVA 0.034): significant reductions (improvements)
change in hepatic TGs [1, 6]: significant reductions (improvements)
change in total bile acids [1, 6]: significant reductions (improvements)
liver histology, hematoxylin and eosin (H+E) ([1]; control diet (groups 1 vs 2)): no significant change
hepatic lipid accumulation, oil red staining ([1]; control diet (groups 1 vs 2)): no significant change
effect on ALT, hepatic TGs, LPS, fecal albumin and total bile acids ([1]; control diet groups, seladelpar prevention (group 2 vs 1)): does not significantly affect
ALT ([1]; group 2: control diet with seladelpar prevention, 10 mg/Kg/day oral in diet for 8 weeks): 20.8 (3.5) U/L
Total bile acids [1, 7]: 14.2 (0.6) μmol/100 g body weight
Hepatic TGs [1, 7]: 18.9 (1.8) mg/g
Plasma LPS [1, 7]: 787 (108) ng/mL
FA (fecal albumin) ([1]; group 2: control diet with seladelpar prevention, 10 mg/Kg/day oral): 95 (12) ng/mg
ALT ([1]; group 4: ethanol diet with seladelpar prevention, 10 mg/Kg/day oral in diet for 8 weeks, untreated ethanol group 3: 83.3 (16.7)): 37.8 (4.1) U/L
Total bile acids ([1]; group 4: ethanol diet with seladelpar prevention, 10 mg/Kg/day oral, 8 weeks, group 3: 23.7 (1.6)): 16.5 (1.1) μmol/100 g body weight
Hepatic TGs ([1]; group 4: ethanol diet with seladelpar prevention, 10 mg/Kg/day oral, 8 weeks, group 3: 29.6 (2.0)): 21.8 (1.3) mg/g
Plasma LPS ([1]; group 4: ethanol diet with seladelpar prevention, 10 mg/Kg/day oral, 8 weeks, group 3: 1064 (204)): 723 (66) ng/mL
FA (fecal albumin) ([1]; group 4: ethanol diet with seladelpar prevention, 10 mg/Kg/day oral, group 3: 135 (15)): 98 (8) ng/mg
FA (fecal albumin) ([1]; group 5: ethanol diet with seladelpar intervention, 10 mg/Kg/day oral from week 5, group 3: 135 (15)): 112 (9) ng/mg
ALT ([1]; group 5: ethanol diet with seladelpar intervention, 10 mg/Kg/day oral in diet, weeks 5-8, untreated ethanol group 3: 83.3 (16.7)): 30.9 (4.1) U/L
Total bile acids ([1]; group 5: ethanol diet with seladelpar intervention, 10 mg/Kg/day oral, weeks 5-8, group 3: 23.7 (1.6)): 16.0 (1.1) μmol/100 g body weight
Hepatic TGs ([1]; group 5: ethanol diet with seladelpar intervention, 10 mg/Kg/day oral, weeks 5-8, group 3: 29.6 (2.0)): 20.5 (1.3) mg/g
Plasma LPS ([1]; group 5: ethanol diet with seladelpar intervention, 10 mg/Kg/day oral, weeks 5-8, group 3: 1064 (204)): 634 (59) ng/mL
NASH pathology [2]: improves NASH pathology (reducing hepatic steatosis and inflammation, and improving fibrosis)
improvement in disease (reduction in liver transaminases, hsCRP, interleukin-18, TNF-α, Maddrey's discriminant function, MELD score) [3]: dose-related improvement
improvement in disease (reductions in MRI-PDFF, TGs, liver transaminases) [4]: dose-related improvement
